Assay results reported in ChEMBL document CHEMBL1201862, “PubChem BioAssay data set” (2004).
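Briefly, cells in 96-well plates were exposed to five compound concentrations for 48 h, and endpoints were estimated by linear interpolation. GI50 is the concentration that inhibits growth by half.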 Activity calls are given as the source filed them. No stated cut-off is given here; in the data, active = GI50 up to about 1.1 µM and inactive = higher.

Assays:
Experiment in all cases: inhibition of tumour cell growth, NCI panel, 48 h
[1] = test system: A549
[2] = test system: ACHN
[3] = test system: BT-549
[4] = test system: HCT-15
[5] = test system: HOP-62
[6] = test system: HOP-92
[7] = test system: Hs-578T
[8] = test system: KM12
[9] = test system: NCI-H522
[10] = test system: OVCAR-5
[11] = test system: RXF 393
[12] = test system: SF-268
[13] = test system: SK-MEL-28
[14] = test system: SK-MEL-2
[15] = test system: SK-MEL-5
[16] = test system: SNB-75
[17] = test system: UO-31
[18] = test system: IGROV-1
[19] = test system: PC-3

Row | Structure (SMILES) | GI50 [1] | GI50 [2] | GI50 [3] | GI50 [4] | GI50 [5] | GI50 [6] | GI50 [7] | GI50 [8] | GI50 [9] | GI50 [10] | GI50 [11] | GI50 [12] | GI50 [13] | GI50 [14] | GI50 [15] | GI50 [16] | GI50 [17] | GI50 [18] | GI50 [19]
1 | O=c1[nH]/c(=C/c2ccc(OCc3ccccc3)cn2)c(=O)[nH]/c1=C/c1ccc(Cl)cc1 | > 84.9 µM (inactive) | 4.24 µM (inactive) | 0.344 µM (active) | 0.469 µM | 1.33 µM (inactive) | 13.9 µM (inactive) | 0.804 µM (active) | 0.895 µM (active) | 0.723 µM (active) | > 100 µM (inactive) | 4.53 µM (inactive) | 1.87 µM (inactive) | > 76.7 µM (inactive) | 4.73 µM (inactive) | 1.01 µM (active) | 1.86 µM (inactive) | 2.7 µM (inactive) |  | 
2 | CN(C)C(=O)Oc1ccc(C(=S)Nc2ccccc2)cc1 | 66.2 µM (inactive) | > 100 µM (inactive) | 32 µM (inactive) | 97.5 µM | > 100 µM (inactive) |  | > 100 µM (inactive) | 49.7 µM (inactive) | 64.4 µM (inactive) | > 100 µM (inactive) |  | > 100 µM (inactive) | 33.1 µM (inactive) | > 100 µM (inactive) | 24 µM (inactive) |  | 75.3 µM (inactive) | 34 µM (inactive) | 96.4 µM (inactive)
3 | O=C(O)c1ccc(Nc2nc3ccc(C(F)(F)F)cc3nc2-c2ccccc2)cc1 | 27 µM (inactive) | 32.9 µM (inactive) |  | 18.6 µM | 43 µM (inactive) |  | 46.3 µM (inactive) | > 10 µM (inactive) | 28.6 µM (inactive) | 78 µM (inactive) | 20.8 µM (inactive) | 40.3 µM (inactive) | 37.8 µM (inactive) |  | 29.2 µM (inactive) | 40 µM (inactive) | 23.9 µM (inactive) | 43.4 µM (inactive) | 50.9 µM (inactive)
4 | CC(=O)[C@@H]1[C@@H](OC(=O)CCC(C)COC2OC(CO)C(O)C(O)C2O)C[C@H]2[C@@H]3CC=C4C[C@@H](OC5OC(CO)C(OC6OC(C)C(O)C(O)C6O)C(O)C5OC5OC(C)C(O)C(O)C5O)CC[C@]4(C)[C@H]3CC[C@]12C (stereo partly specified) | > 100 µM (inactive) | > 100 µM (inactive) | > 100 µM (inactive) |  | > 100 µM (inactive) |  |  | > 100 µM (inactive) | 35.2 µM (inactive) | > 100 µM (inactive) | > 100 µM (inactive) | > 100 µM (inactive) | > 100 µM (inactive) | > 100 µM (inactive) | > 100 µM (inactive) | > 100 µM (inactive) | > 100 µM (inactive) |  | > 100 µM (inactive)
5 | CCOC(=O)c1ccc(/N=C2\Sc3nc4ccccc4n3\C2=N\c2ccc(C(=O)OCC)cc2)cc1 | 25.2 µM (inactive) | 22.3 µM (inactive) |  | 51.4 µM | 21.5 µM (inactive) | 12.8 µM (inactive) | 22.6 µM (inactive) | 20.1 µM (inactive) | 24.7 µM (inactive) | 60 µM (inactive) | 28.8 µM (inactive) | 22.3 µM (inactive) | 39.2 µM (inactive) | 39.3 µM (inactive) | 25.9 µM (inactive) |  |  | 19.5 µM (inactive) | 37.7 µM (inactive)
6 | COP1(=O)OCc2cnccc2O1 (stereo unspecified) | > 100 µM (inactive) | > 100 µM (inactive) | > 100 µM (inactive) | > 100 µM | > 100 µM (inactive) |  | > 100 µM (inactive) | > 100 µM (inactive) | > 100 µM (inactive) | > 100 µM (inactive) |  | > 100 µM (inactive) | > 100 µM (inactive) | > 100 µM (inactive) | > 100 µM (inactive) | > 100 µM (inactive) | > 100 µM (inactive) | > 100 µM (inactive) | > 100 µM (inactive)
7 | CC(=O)O[C@@H]1O[Si](C(C)(C)C)(C(C)(C)C)[C@H](C)[C@H]1C | 41 µM (inactive) | > 100 µM (inactive) | > 100 µM (inactive) | 29.9 µM | > 100 µM (inactive) |  |  | 30.5 µM (inactive) | 56.6 µM (inactive) | > 100 µM (inactive) |  |  | > 100 µM (inactive) | > 100 µM (inactive) | 26.1 µM (inactive) | 6.62 µM (inactive) | > 100 µM (inactive) | 21.1 µM (inactive) | 33 µM (inactive)
8 | CCc1cc2c(c3c1CCCC3=O)CC1(Cc3ccc(C(=O)OC)cc3C1)C2 (stereo unspecified) | 48.4 µM (inactive) | 25.6 µM (inactive) |  | > 100 µM | > 100 µM (inactive) | 29.1 µM (inactive) | > 100 µM (inactive) | 30.6 µM (inactive) | 51.1 µM (inactive) | > 100 µM (inactive) | 32.5 µM (inactive) | > 100 µM (inactive) | 64 µM (inactive) | > 100 µM (inactive) | 15 µM (inactive) | 26.7 µM (inactive) | 48.3 µM (inactive) | > 100 µM (inactive) | 14.4 µM (inactive)
9 | O=[N+]([O-])/C=C\c1c[nH]c2ccc(OCc3ccccc3)cc12 | 4.31 µM (inactive) | 2.13 µM (inactive) |  |  | 12.9 µM (inactive) | 3.21 µM (inactive) | 3.57 µM (inactive) | 2.09 µM (inactive) | 10.2 µM (inactive) | 11.1 µM (inactive) | 2.58 µM (inactive) | 4.37 µM (inactive) | 3.03 µM (inactive) | 11.5 µM (inactive) | 5.06 µM (inactive) |  | 3.58 µM (inactive) | 4.15 µM (inactive) | 7.33 µM (inactive)
